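How tested: cells in 96-well plates exposed to compound for 48 hours at five concentrations. TGI denotes the concentration required for complete inhibition of growth.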
What was measured:
Experiment in all cases: inhibition of tumour cell growth, NCI panel, 48 h
[1] = tested on: 786-0 renal
[2] = tested on: A498 renal
[3] = tested on: A549 NSCLC
[4] = tested on: ACHN renal
[5] = tested on: BT-549 breast
[6] = tested on: CAKI-1 renal
[7] = tested on: CCRF-CEM leukemia
[8] = tested on: COLO 205 colon
[9] = tested on: DU-145 prostate
[10] = tested on: EKVX NSCLC
[11] = tested on: HCT-116 colon
[12] = tested on: HCT-15 colon
[13] = tested on: HL-60(TB) leukemia
[14] = tested on: HOP-62 NSCLC
[15] = tested on: HOP-92 NSCLC
[16] = tested on: HS 578T breast
[17] = tested on: HT29 colon
[18] = tested on: IGROV1 ovarian
[19] = tested on: K-562 leukemia
[20] = tested on: KM12 colon
[21] = tested on: LOX IMVI melanoma
[22] = tested on: M14 melanoma
[23] = tested on: MALME-3M melanoma
[24] = tested on: MCF7 breast
[25] = tested on: MDA-MB-231 breast
[26] = tested on: MDA-MB-435
[27] = tested on: MDA-N
[28] = tested on: MOLT-4 leukemia
[29] = tested on: NCI-H226 lung
[30] = tested on: NCI-H23 lung
[31] = tested on: NCI-H460 lung
[32] = tested on: NCI-H522 lung
[33] = tested on: NCI/ADR-RES ovarian
[34] = tested on: OVCAR-3 ovarian
[35] = tested on: OVCAR-4 ovarian
[36] = tested on: OVCAR-5 ovarian
[37] = tested on: OVCAR-8 ovarian
[38] = tested on: PC-3 prostate
[39] = tested on: RPMI-8226 leukemia
[40] = tested on: RXF 393 renal
[41] = tested on: SF-268 CNS
[42] = tested on: SF-295 CNS
[43] = tested on: SF-539 CNS
[44] = tested on: SK-MEL-2 melanoma
[45] = tested on: SK-MEL-28 melanoma
[46] = tested on: SK-OV-3 ovarian
[47] = tested on: SN12C renal
[48] = tested on: SNB-19 CNS
[49] = tested on: SNB-75 CNS
[50] = tested on: SR leukemia
[51] = tested on: SW-620 colon
[52] = tested on: T-47D breast
[53] = tested on: U251 CNS
[54] = tested on: UACC-257 melanoma
[55] = tested on: UACC-62 melanoma
[56] = tested on: UO-31 renal
[57] = tested on: HCC-2998 colon
[58] = tested on: SK-MEL-5 melanoma
[59] = tested on: TK-10 renal

## CSC(=N/C=C/c1ccccc1)SC
[1]
  TGI: > 100 µM
[2]
  TGI: > 100 µM
[3]
  TGI: > 100 µM
[4]
  TGI: > 100 µM
[5]
  TGI: > 100 µM
[6]
  TGI: > 100 µM
[7]
  TGI: > 100 µM
[8]
  TGI: > 100 µM
[9]
  TGI: > 100 µM
[10]
  TGI: > 100 µM
[11]
  TGI: > 100 µM
[12]
  TGI: > 100 µM
[13]
  TGI: > 100 µM
[14]
  TGI: > 100 µM
[15]
  TGI: > 100 µM
[16]
  TGI: > 100 µM
[17]
  TGI: > 100 µM
[18]
  TGI: > 100 µM
[19]
  TGI: > 100 µM
[20]
  TGI: > 100 µM
[21]
  TGI: > 100 µM
[22]
  TGI: > 100 µM
[23]
  TGI: > 100 µM
[24]
  TGI: > 100 µM
[25]
  TGI: > 100 µM
[26]
  TGI: > 100 µM
[27]
  TGI: > 100 µM
[28]
  TGI: > 100 µM
[29]
  TGI: > 100 µM
[30]
  TGI: > 100 µM
[31]
  TGI: > 100 µM
[32]
  TGI: > 100 µM
[33]
  TGI: > 100 µM
[34]
  TGI: > 100 µM
[35]
  TGI: > 100 µM
[36]
  TGI: > 100 µM
[37]
  TGI: > 100 µM
[38]
  TGI: > 100 µM
[39]
  TGI: > 100 µM
[40]
  TGI: > 100 µM
[41]
  TGI: > 100 µM
[42]
  TGI: > 100 µM
[43]
  TGI: > 100 µM
[44]
  TGI: > 100 µM
[45]
  TGI: > 100 µM
[46]
  TGI: > 100 µM
[47]
  TGI: > 100 µM
[48]
  TGI: > 100 µM
[49]
  TGI: > 100 µM
[50]
  TGI: > 100 µM
[51]
  TGI: > 100 µM
[52]
  TGI: > 100 µM
[53]
  TGI: > 100 µM
[54]
  TGI: > 100 µM
[55]
  TGI: > 100 µM
[56]
  TGI: > 100 µM

## Cc1ccc(-c2nnc(-c3ccc4ccccc4c3)o2)cc1
[1]
  TGI: > 100 µM
[2]
  TGI: > 100 µM
[3]
  TGI: > 100 µM
[4]
  TGI: > 100 µM
[5]
  TGI: > 93.5 µM
[6]
  TGI: > 86.8 µM
[7]
  TGI: > 25 µM
[8]
  TGI: > 100 µM
[9]
  TGI: > 100 µM
[10]
  TGI: > 100 µM
[57]
  TGI: > 100 µM
[11]
  TGI: > 100 µM
[12]
  TGI: > 100 µM
[13]
  TGI: > 21.9 µM
[14]
  TGI: > 77.4 µM
[15]
  TGI: > 100 µM
[16]
  TGI: > 100 µM
[17]
  TGI: > 100 µM
[18]
  TGI: > 100 µM
[19]
  TGI: > 51.2 µM
[20]
  TGI: > 100 µM
[21]
  TGI: > 100 µM
[22]
  TGI: > 93.2 µM
[23]
  TGI: > 88.9 µM
[24]
  TGI: > 100 µM
[25]
  TGI: > 100 µM
[26]
  TGI: > 100 µM
[27]
  TGI: > 100 µM
[28]
  TGI: > 26.6 µM
[29]
  TGI: 99.9 µM
[30]
  TGI: > 100 µM
[31]
  TGI: > 100 µM
[32]
  TGI: > 100 µM
[33]
  TGI: > 79.2 µM
[34]
  TGI: > 100 µM
[35]
  TGI: > 100 µM
[36]
  TGI: > 100 µM
[37]
  TGI: > 100 µM
[38]
  TGI: > 100 µM
[39]
  TGI: > 100 µM
[40]
  TGI: 55.1 µM
[41]
  TGI: > 100 µM
[42]
  TGI: > 100 µM
[43]
  TGI: > 60.2 µM
[44]
  TGI: > 32.6 µM
[45]
  TGI: > 100 µM
[58]
  TGI: > 100 µM
[46]
  TGI: > 100 µM
[47]
  TGI: > 100 µM
[48]
  TGI: > 100 µM
[49]
  TGI: 82.7 µM
[50]
  TGI: > 68.4 µM
[51]
  TGI: > 100 µM
[52]
  TGI: > 100 µM
[59]
  TGI: > 60.6 µM
[53]
  TGI: > 100 µM
[54]
  TGI: > 100 µM
[55]
  TGI: > 85.6 µM
[56]
  TGI: > 100 µM

## O=c1c2cccnc2n2n1Cc1ccccc1C2
[1]
  TGI: > 100 µM
[2]
  TGI: > 100 µM
[3]
  TGI: > 100 µM
[4]
  TGI: > 100 µM
[5]
  TGI: > 100 µM
[6]
  TGI: > 100 µM
[7]
  TGI: > 100 µM
[9]
  TGI: > 100 µM
[10]
  TGI: > 100 µM
[57]
  TGI: > 100 µM
[11]
  TGI: > 100 µM
[12]
  TGI: > 100 µM
[13]
  TGI: > 100 µM
[14]
  TGI: > 100 µM
[15]
  TGI: > 100 µM
[16]
  TGI: > 100 µM
[17]
  TGI: > 100 µM
[18]
  TGI: > 100 µM
[19]
  TGI: > 100 µM
[21]
  TGI: > 100 µM
[23]
  TGI: > 100 µM
[24]
  TGI: > 100 µM
[25]
  TGI: > 100 µM
[26]
  TGI: > 100 µM
[27]
  TGI: > 100 µM
[28]
  TGI: > 100 µM
[29]
  TGI: > 100 µM
[30]
  TGI: > 100 µM
[31]
  TGI: > 100 µM
[32]
  TGI: > 100 µM
[33]
  TGI: > 100 µM
[34]
  TGI: > 100 µM
[35]
  TGI: > 100 µM
[36]
  TGI: > 100 µM
[37]
  TGI: > 100 µM
[38]
  TGI: > 100 µM
[39]
  TGI: > 100 µM
[40]
  TGI: > 100 µM
[41]
  TGI: > 100 µM
[42]
  TGI: > 100 µM
[43]
  TGI: > 100 µM
[45]
  TGI: > 100 µM
[58]
  TGI: > 100 µM
[46]
  TGI: > 100 µM
[47]
  TGI: > 100 µM
[49]
  TGI: > 100 µM
[50]
  TGI: > 100 µM
[51]
  TGI: > 100 µM
[52]
  TGI: > 100 µM
[59]
  TGI: > 100 µM
[53]
  TGI: > 100 µM
[54]
  TGI: > 100 µM
[55]
  TGI: > 100 µM
[56]
  TGI: > 100 µM

## CS(=O)(=O)OCCCCOS(=O)(=O)CF
[1]
  TGI: > 100 µM
[2]
  TGI: > 100 µM
[3]
  TGI: > 100 µM
[4]
  TGI: > 100 µM
[5]
  TGI: > 100 µM
[6]
  TGI: > 100 µM
[7]
  TGI: > 100 µM
[8]
  TGI: > 100 µM
[9]
  TGI: > 100 µM
[10]
  TGI: > 100 µM
[57]
  TGI: > 100 µM
[11]
  TGI: > 100 µM
[12]
  TGI: > 100 µM
[13]
  TGI: > 100 µM
[14]
  TGI: > 100 µM
[15]
  TGI: > 92.4 µM
[16]
  TGI: > 100 µM
[17]
  TGI: > 100 µM
[18]
  TGI: > 100 µM
[19]
  TGI: > 100 µM
[20]
  TGI: > 100 µM
[21]
  TGI: > 100 µM
[22]
  TGI: > 100 µM
[23]
  TGI: > 46.4 µM
[24]
  TGI: > 100 µM
[25]
  TGI: > 100 µM
[26]
  TGI: > 100 µM
[27]
  TGI: > 100 µM
[28]
  TGI: > 100 µM
[29]
  TGI: > 100 µM
[30]
  TGI: > 100 µM
[31]
  TGI: > 100 µM
[32]
  TGI: > 100 µM
[33]
  TGI: > 100 µM
[34]
  TGI: > 100 µM
[35]
  TGI: > 100 µM
[36]
  TGI: > 100 µM
[37]
  TGI: > 100 µM
[38]
  TGI: > 100 µM
[39]
  TGI: > 100 µM
[40]
  TGI: > 100 µM
[41]
  TGI: > 100 µM
[42]
  TGI: > 100 µM
[43]
  TGI: > 100 µM
[44]
  TGI: > 100 µM
[45]
  TGI: > 100 µM
[58]
  TGI: > 100 µM
[46]
  TGI: > 100 µM
[47]
  TGI: > 100 µM
[48]
  TGI: > 100 µM
[49]
  TGI: > 100 µM
[50]
  TGI: > 100 µM
[51]
  TGI: > 100 µM
[52]
  TGI: > 100 µM
[59]
  TGI: > 100 µM
[53]
  TGI: > 100 µM
[54]
  TGI: > 100 µM
[55]
  TGI: > 100 µM
[56]
  TGI: > 100 µM
